Patent US6403090B1, “Peptides which mimic candida carbohydrate epitopes and their use in a vaccine” (The Research and Development Institute Inc., priority 1994, dated 2002)
Where a SMILES comes first, the peptide text is derived from it. [ ]: non-standard residue; d: D form. Nle = CCCC[C@H](N)C(=O)O

How the values were obtained:
[1] = system: g3p in COS-1 cells; experiment: g3p expression in transfected COS-1 cells by IFA; type: cell-based; conditions: COS-1 cells treated with protease inhibitor
Experimental: To achieve greater levels of expression, the plasmids were transfected into COS-1 cells, which are capable of replicating the plasmids and generating exceptional amounts of the encoded proteins. […] Several different transfection methods and variations were tested to increase the proportion of cells that would express detectable g3p. […] Therefore, g3p is likely being broken down rapidly by the mammalian cells.
This possibility was further tested by treating the COS-1 cells with a protease inhibitor (ALLN) that can inhibit proteases in the endoplasmic reticulum of living cells. […] The antigen was detected in the Golgi apparatus as well as in the endoplasmic reticulum. Less of the truncated version of g3p (without a membrane anchor) was detectable; whether any of it is secreted from the expressing cells under these conditions remains to be determined.

[2] = system: binding of C. albicans hydrophilic yeast cells to splenic marginal zone macrophages; experiment: Ex vivo adherence assay on mouse splenic tissue; conditions: purified epitope of mAb 10G
Description: Tissue adherence characteristics of C. albicans and adhesin isolation. By use of an ex vivo adherence assay, the adherence characteristics of hydrophilic and hydrophobic yeast cells to mouse splenic and lymph node tissue was examined (Cutler, J. E., et al., 1990, Characteristics of Candida albicans adherence to mouse tissues. Infec. Immun. 58:1902-1908); Han, Y., et al. 1993. Binding of C. albicans yeast cells to mouse popliteal lymph node tissue is mediated by macrophages. Infect. Immun. 61:3244-3249; and Hazen, K. C., et al. 1991. Differential adherence between hydrophobic and hydrophilic yeast cells of C. albicans. Infect. Immun. 59:907-91212).
C. neoformans strain 602 log and stationary phase cells were removed form the various growth conditions and tested for adherence to splenic tissue in the ex vivo assay. […]
However, 2ME extract will not inhibit yeast adherence if the extract is treated with antiserum from vaccinated animals. […] 100 μl of each was overlaid onto splenic cryosections for 15 min at 4° C., the mixtures were decanted, 100 μl of a suspension of yeast cells (1.5×10^7/0.1 ml DMEM) was added to each tissue section for 15 min at 4° C., and yeast cell binding was quantified as previously described (Riesselman, M. H. et al. 1991. Improvements and important considerations of an ex vivo assay to study interactions of C. albicans with splenic tissue., J. Immunol. Methods 1450:153-160). […]

[3] = molecular target: irrelevant IgM MAb S10
[4] = molecular target: Monoclonal Antibody B6.1 (930610), ATCC Accession No. HB11925
[5] = system: MAb B6.1; experiment: Dot blot inhibition of MAb B6.1 by synthetic peptide at pH 8.6; type: binding, mouse; conditions: up to 200 μM peptide
Description: Because pH below 5 or above 8.5 is required to solubilize PS76p, the reactivity of MAb B6.1 at low and high pH was investigated. […] Although MAb B6.1 is functional at these pH conditions, the PS76p may or may not retain proper epitope conformation at this pH and may require tethering to a carrier molecule to enable inhibition studies to be done at pH 7.

[6] = Solubility tests; type: physicochemical
Description: Synthetic peptide inhibits binding of MAb B6.1 to its' carbohydrate epitope. […] We obtained a synthetic 13-mer peptide (Bio-Synthesis, Lewisville, Tex.), YRQFVTGFWGPPC, (SEQ ID NO:7) which was designed to include the PS76 nonapeptide sequence (designated as PS76p) plus the 3 amino acid pIII tether (GPP) and an added cysteine (C) to facilitate peptide coupling to a carrier protein, such as keyhole limpet hemocyanin (KLH). Due to the high number of hydrophobic amino acids in the synthesized PS76p, solubility tests were run to determine conditions for dot blot inhibition studies. The PS76p was soluble in trifluoroacetic acid, dimethylsulfoxide, 20% v/v acetic acid, citrate and acetate buffers below pH 5.4, borate buffer above pH 8.5, but not soluble in deionized water, phosphate buffered saline (PBS), 15% v/v dimethylformamide, chloroform, or methanol.

[7] = system: C. albicans 2ME extract; experiment: Antibody response of mice immunized with peptide mimotope preparations; type: in vivo, BALB/c mice; conditions: for Class of the antibody response against 2ME extract: γ-chain or μ-chain specific secondary antibodies
Experimental: Administration of peptide intraperitoneally (i.p.) BALB/c mice (4 animals) were immunized i.p. with PS76p (1 mg per dose) mixed into sterile PBS (degassed and nitrogen sparged) with and without RS-700MPL+TDM Ribi Adjuvant (Ribi Immunochem, Hamilton, Mont.). The insolubility of PS76p in PBS, as noted above, produced a particulate inoculum which was sonicated briefly (10 sec, ice cold) to minimize particulate size prior to injection. Animals were boosted with 1 mg PS76p at day 21 and serum samples were obtained on day 28. Sera from all four mice agglutinated hydrophilic C. albicans cells and agglutinated 2-ME extract-latex beads. The anti-Candida response appeared somewhat stronger in the animals receiving peptide with adjuvant.
Reactivity of the anti-PS76p sera from the mice was also tested in dot blot assays against 2-ME extract (1 μg/dot). Immune sera were diluted 1:10 in 5% BLOTTO-phage buffer, incubated 12-16 h with preblocked dot blots, washed and incubated with peroxidase-conjugated goat anti-mouse Ig (G,M, and A). […] Additional dot blots were incubated in primary antibodies as above and reacted with either γ-chain specific or μ-chain specific secondary antibodies.
Animals were administered booster immunizations of PS76p every two weeks and serum samples obtained 1 week after each. An ELISA assay was utilized to determine any change in titer for the anti-PS76p antiserum samples. Briefly, 2ME extract-coated wells or wells coated with an irrelevant carbohydrate were blocked in 5% BLOTTO/phage buffer and incubated with dilutions of either pre-immune sera or various anti-PS76p antiserum samples. Subsequent steps with the secondary antibody and substrate solution were as described above for ELISA. All of the anti-PS76p serum samples reacted with 2ME extract and recognized the peptide-carrier protein conjugates, but not the irrelevant carbohydrate or the carrier proteins alone. […] Other BALB/C mice (2 animals) were immunized with PS76p plus Ribi adjuvant (1 mg/dose subcutaneous inoculation (s.c.), and reached higher anti-PS76 antibody titers (e.g. 160 by ELISA) after the second boost. ELISA tests performed with class-specific secondary antibody reagents confirm that the response is primarily IgM. […]

[8] = system: MAb S10; experiment: ELISA: peptide-carrier conjugates with irrelevant IgM MAb S10; type: binding; conditions: physiologic pH
Experimental: (§1) Samples of the final conjugates, PS76p-MBS-KLH (i.e. PS76-KLH) and PS76p-GMBS-OVA (i.e. PS76-OVA) were tested by enzyme linked immunosorbent assay (ELISA) for reactivity with MAb B6.1 at physiologic pH. Microtiter plate wells were coated with the peptide conjugates or the carrier proteins alone, washed (Tris buffered saline with 0.1% Tween-20), and blocked in 5% BLOTTO/phage buffer. Wells were washed and incubated with MAb B6.1, an irrelevant IgM (MAb S10) or block only, washed, and a horseradish peroxidase-conjugated goat anti-mouse Ig (G and M) was added. Wells were washed and an o-phenylenediamine substrate solution was added, incubated 10 min and color development stopped with 10% sulfuric acid, and the plate read at OD=490 nm. […] The PS76-KLH conjugate was utilized in an ELISA-based inhibition assay as follows. Microtiter plate wells were coated with PS76-KLH and blocked as above. MAb B6.1 ([…] in block) was pre-incubated with or without either 50 or 500 μg of acid-hydrolyzed 2ME extract per ml of solution, and then added to the conjugate coated well.

[9] = system: MAb B6.1; experiment: ELISA: peptide-carrier conjugates with MAb B6.1 at physiologic pH; type: binding, mouse; conditions: OD 490 nm
Experimental: as §1

For `CCCC[C@@H](C=O)NC(=O)[C@H](CC(C)C)NC(=O)[C@H](CC(C)C)NC(C)=O` [ALLN] (Ac-Leu-Leu-[Nle]-aldehyde), the “Frequency and amount of g3p detectable by IFA” value [1] was “significant increase”.

With `OC[C@H]1O[C@@H](O[C@@H]2[C@H](O[C@@H]3[C@H](O[C@@H]4C(O)O[C@H](CO)[C@@H](O)[C@@H]4O)O[C@H](CO)[C@@H](O)[C@@H]3O)O[C@H](CO)[C@@H](O)[C@@H]2O)[C@@H](O)[C@@H](O)[C@@H]1O` (stereo partly drawn) [tetramannose, β-1,2-linked straight-chained tetramannose] the “Binding of yeast cells to the splenic marginal zone” value [2] was “blocks binding”.

“M13KBst, the parent vector (parent phage) for the PDPL (from UniProt P69168 19-424)” showed an absorbance (OD490) [3] of 0.032 OD490 and an absorbance (OD490) [4] of 0.021 OD490.

With “YRQFVTGFWGPPC [PS76p, synthetic 13-mer: PS76 nonapeptide plus GPP tether and added cysteine]” the “Inhibition of MAb B6.1 binding to 2-ME extract” value [5] was “negative”, the Solubility ([6]; deionized water, PBS, 15% v/v dimethylformamide, chloroform, methanol) was “not soluble” and the Solubility ([6]; trifluoroacetic acid, dimethylsulfoxide, 20% v/v acetic acid, citrate and acetate buffers below pH 5.4, borate buffer above pH 8.5) was “soluble”. The “ELISA titer against 2ME extract” value ([7]; 1 mg i.p. immunizations, boosters every two weeks) was roughly 40, the “Agglutination of hydrophilic C. albicans cells and 2-ME extract-latex beads by sera of immunized mice” value ([7]; 1 mg per dose i.p. with and without Ribi adjuvant, boost day 21, serum day 28, all four mice) was “agglutinated” and the “ELISA anti-PS76 antibody titer” value ([7]; 1 mg/dose s.c. plus Ribi adjuvant, after the second boost) was 160. For the same molecule, the “Dot blot reactivity of immune sera to 2-ME extract” value ([7]; sera 1:10, 1 μg/dot, all four immunized mice) was “showed reactivity” and the “Class of the antibody response against 2ME extract” value [7] was “primarily IgM”.

B1: PS76-OVA: PS76p conjugated to ovalbumin via GMBS (conjugate)
peptide: YRQFVTGFWGPPC
chain: GSIGAASMEFCFDVFKELKVHHANENIFYCPIAIMSALAMVYLGAKDSTRTQINKVVRFDKLPGFGDSIEAQCGTSVNVHSSLRDILNQITKPNDVYSFSLASRLYAEERYPILPEYLQCVKELYRGGLEPINFQTAADQARELINSWVESQTNGIIRNVLQPSSVDSQTAMVLVNAIVFKGLWEKAFKDEDTQAMPFRVTEQESKPVQMMYQIGLFRVASMASEKMKILELPFASGTMSMLVLLPDEVSGLEQLESIINFEKLTEWTSSNVMEERKIKVYLPRMKMEEKYNLTSVLMAMGITDVFSSSANLSGISSAESLKISQAVHAAHAEINEAGREVVGSAEAGVDAASVSEEFRADHPFLFCIKHIATNAVLFFGRCVSP
For B1, the “Reactivity with MAb S10 by ELISA” value [8] was “not substantially”, the “ELISA titer against 2ME extract” value ([7]; conjugate s.c.) was 320 and the “Class of the antibody response against 2ME extract” value [7] was “primarily IgM”. The “Reactivity with MAb B6.1 by ELISA” value [9] was “reacted”.
